# Results taken from PubChem BioAssay AID330 (DTP/NCI, 2004).
# Several values for one entry are separate records, joined by “and”; a condition that tells them apart may be missing. Equal values may be shown once. Toxic doses and inconclusive results are not listed.
# Test system: P388 leukemia ip, CD2F1 mice, survival T/C
# Assay: NCI In Vivo Anticancer Drug Screen. Data for tumor model P388 Leukemia (intraperitoneal) in CD2F1 (CDF1) mice
# Conditions: endpoint: median survival time, higher = longer survival
# How it was run: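 Mice carrying the transplanted tumor received test compound or vehicle. Survival was recorded in each group, and the value is the treated-group measurement divided by that of the vehicle-treated control group.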
# [1] = dose: 100.0 mg/kg/injection, schedule: Q01DX009 (ip), vehicle: saline with Tween-80
# [2] = dose: 200.0 mg/kg/injection, schedule: Q01DX009 (ip), vehicle: saline with Tween-80
# [3] = dose: 400.0 mg/kg/injection, schedule: Q01DX009 (ip), vehicle: saline with Tween-80
# [4] = dose: 25.0 mg/kg/injection, schedule: Q04DX002 (ip), vehicle: saline with Tween-80
# [5] = dose: 50.0 mg/kg/injection, schedule: Q01DX005 (ip), vehicle: Klucel (hydroxypropylcellulose) (HPC)
# [6] = dose: 100.0 mg/kg/injection, schedule: Q01DX005 (ip), vehicle: Klucel (hydroxypropylcellulose) (HPC)
# [7] = dose: 60.0 mg/kg/injection, schedule: Q01DX005 (ip), vehicle: Klucel (hydroxypropylcellulose) (HPC)
# [8] = dose: 120.0 mg/kg/injection, schedule: Q01DX005 (ip), vehicle: Klucel (hydroxypropylcellulose) (HPC)
# [9] = dose: 240.0 mg/kg/injection, schedule: Q01DX005 (ip), vehicle: Klucel (hydroxypropylcellulose) (HPC)
# [10] = dose: 50.0 mg/kg/injection, schedule: Q01DX009 (ip), vehicle: saline with Tween-80
# [11] = dose: 50.0 mg/kg/injection, schedule: Q04DX002 (ip), vehicle: saline with Tween-80
# [12] = dose: 100.0 mg/kg/injection, schedule: Q04DX002 (ip), vehicle: saline with Tween-80
# [13] = dose: 60.0 mg/kg/injection, schedule: Q01DX005 (ip), vehicle: saline with Tween-80
# [14] = dose: 120.0 mg/kg/injection, schedule: Q01DX005 (ip), vehicle: saline with Tween-80
smiles,measurement,setting,value
CSc1nc(N)nc2c1ncn2C1OC(CO)C(O)C1O (stereo not given),T/C,[1],90 % of control
same,T/C,"dose: 100.0 mg/kg/injection, schedule: Q04DX003 (ip), vehicle: saline sonified",100 % of control
same,T/C,[2],86 % of control
same,T/C,"dose: 200.0 mg/kg/injection, schedule: Q04DX003 (ip), vehicle: saline sonified",100 % of control
same,T/C,[3],100 % of control
same,T/C,"dose: 400.0 mg/kg/injection, schedule: Q04DX003 (ip), vehicle: saline sonified",95 % of control
COc1ccccc1C1C2CCCC(C2=O)C(c2ccccc2OC)N1C (stereo not given),T/C,"dose: 100.0 mg/kg/injection, schedule: Q04DX003 (ip), vehicle: saline",98 % of control
same,T/C,"dose: 200.0 mg/kg/injection, schedule: Q04DX003 (ip), vehicle: saline",99 % of control
same,T/C,"dose: 400.0 mg/kg/injection, schedule: Q04DX003 (ip), vehicle: saline",99 % of control
COC(=O)[C@H]1O[C@H]1c1cc[n+]([O-])cc1,T/C,"dose: 25.0 mg/kg/injection, schedule: Q01DX005 (ip), vehicle: water",101 % of control
same,T/C,"dose: 50.0 mg/kg/injection, schedule: Q01DX005 (ip), vehicle: water",102 % of control
same,T/C,"dose: 100.0 mg/kg/injection, schedule: Q01DX005 (ip), vehicle: water",105 % of control
same,T/C,"dose: 200.0 mg/kg/injection, schedule: Q01DX005 (ip), vehicle: water",109 % of control
CC([NH-])CC(C)[NH-].[I][Pt+2][I] (stereo not given),T/C,"dose: 12.5 mg/kg/injection, schedule: Q04DX002 (ip), vehicle: saline with Tween-80",169 % of control and 150 % of control
same,T/C,[4],163 % of control and 157 % of control
C1COC(NC2CC3CCC2C3)=N1 (stereo not given),T/C,"dose: 6.25 mg/kg/injection, schedule: Q04DX003 (ip), vehicle: saline with Tween-80",100 % of control
same,T/C,"dose: 12.5 mg/kg/injection, schedule: Q04DX003 (ip), vehicle: saline with Tween-80",100 % of control
same,T/C,"dose: 25.0 mg/kg/injection, schedule: Q04DX003 (ip), vehicle: saline with Tween-80",100 % of control
S=C(NCCc1ccccc1)N/N=C/c1ccc(Cl)cc1,T/C,[5],104 % of control
same,T/C,[6],100 % of control
CCOC(=O)C1C(c2ccc(N(C)C)cc2)c2cc3c(cc2OC1(C)N1CCCC1)OCO3 (stereo not given),T/C,[7],100 % of control
same,T/C,[8],96 % of control
same,T/C,[9],93 % of control
O=C(c1ccccc1)C1Nc2ccccc2CO1 (stereo not given),T/C,[7],99 % of control
same,T/C,[8],107 % of control
same,T/C,[9],97 % of control
NC(Cc1cc([N+](=O)[O-])ccc1CN(CCCl)CCCl)C(=O)O (stereo not given),T/C,"dose: 0.06 mg/kg/injection, schedule: Q01DX009 (ip), vehicle: Klucel (hydroxypropylcellulose) (HPC)",104 % of control
same,T/C,"dose: 0.11 mg/kg/injection, schedule: Q04DX003 (ip), vehicle: Klucel (hydroxypropylcellulose) (HPC)",110 % of control
same,T/C,"dose: 0.12 mg/kg/injection, schedule: Q01DX009 (ip), vehicle: Klucel (hydroxypropylcellulose) (HPC)",120 % of control
same,T/C,"dose: 0.23 mg/kg/injection, schedule: Q04DX003 (ip), vehicle: Klucel (hydroxypropylcellulose) (HPC)",104 % of control
same,T/C,"dose: 0.25 mg/kg/injection, schedule: Q01DX009 (ip), vehicle: Klucel (hydroxypropylcellulose) (HPC)",117 % of control
same,T/C,"dose: 0.47 mg/kg/injection, schedule: Q04DX003 (ip), vehicle: Klucel (hydroxypropylcellulose) (HPC)",120 % of control
same,T/C,"dose: 1.88 mg/kg/injection, schedule: Q04DX003 (ip), vehicle: Klucel (hydroxypropylcellulose) (HPC)",189 % of control
same,T/C,"dose: 2.0 mg/kg/injection, schedule: Q01DX009 (ip), vehicle: Klucel (hydroxypropylcellulose) (HPC)",105 % of control
same,T/C,"dose: 3.75 mg/kg/injection, schedule: Q04DX003 (ip), vehicle: Klucel (hydroxypropylcellulose) (HPC)",119 % of control
same,T/C,"dose: 4.0 mg/kg/injection, schedule: Q01DX009 (ip), vehicle: Klucel (hydroxypropylcellulose) (HPC)",93 % of control
same,T/C,"dose: 6.25 mg/kg/injection, schedule: Q01DX001 (ip), vehicle: Klucel (hydroxypropylcellulose) (HPC)",93 % of control
same,T/C,"dose: 7.5 mg/kg/injection, schedule: Q04DX003 (ip), vehicle: Klucel (hydroxypropylcellulose) (HPC)",99 % of control
same,T/C,"dose: 8.0 mg/kg/injection, schedule: Q01DX009 (ip), vehicle: Klucel (hydroxypropylcellulose) (HPC)",90 % of control
same,T/C,"dose: 15.0 mg/kg/injection, schedule: Q04DX003 (ip), vehicle: Klucel (hydroxypropylcellulose) (HPC)",91 % of control
same,T/C,"dose: 25.0 mg/kg/injection, schedule: Q01DX001 (ip), vehicle: Klucel (hydroxypropylcellulose) (HPC)",90 % of control
O=C(O)C1CCCCC1Cc1ccccc1 (stereo not given),T/C,[10],109 % of control
same,T/C,[1],98 % of control
same,T/C,[2],93 % of control
O=C1OC2C(O1)C1(c3ccccc3)C(=O)C2(c2ccccc2)C(c2ccccc2)=C1c1ccccc1 (stereo not given),T/C,"dose: 6.25 mg/kg/injection, schedule: Q01DX009 (ip), vehicle: saline with Tween-80",107 % of control and 96 % of control
same,T/C,"dose: 12.5 mg/kg/injection, schedule: Q01DX009 (ip), vehicle: saline with Tween-80",106 % of control and 94 % of control
same,T/C,"dose: 25.0 mg/kg/injection, schedule: Q01DX009 (ip), vehicle: saline with Tween-80",101 % of control and 96 % of control
same,T/C,[10],98 % of control and 105 % of control
same,T/C,[1],89 % of control
CCN(CC)C(=O)c1ccncc1C(=O)c1ccncc1,T/C,"dose: 60.0 mg/kg/injection, schedule: Q01DX005 (ip), vehicle: saline",94 % of control
same,T/C,"dose: 120.0 mg/kg/injection, schedule: Q01DX005 (ip), vehicle: saline",100 % of control
same,T/C,"dose: 240.0 mg/kg/injection, schedule: Q01DX005 (ip), vehicle: saline",100 % of control
COC1OC2COC(c3ccccc3)OC2C(O)C1O (stereo not given),T/C,[10],100 % of control
same,T/C,[1],107 % of control
same,T/C,[2],105 % of control
same,T/C,[3],107 % of control
CSC(=S)/N=c1\c(C)cccn1C,T/C,[4],98 % of control
same,T/C,[11],100 % of control
same,T/C,[12],102 % of control
CC(=O)OC1C(C)OC(OC2C(OC(=O)C3CCC4C(C3)OC3(CC(OC(=O)/C=C/c5ccccc5)C(C)CO3)C43CO3)OC(C)C(OC(C)=O)C2OC(C)=O)C(OC(C)=O)C1OC(C)=O (stereo not given),T/C,"dose: 3.0 mg/kg/injection, schedule: Q01DX005 (ip), vehicle: saline",100 % of control
same,T/C,"dose: 3.75 mg/kg/injection, schedule: Q01DX009 (ip), vehicle: saline + alcohol",100 % of control
same,T/C,"dose: 6.0 mg/kg/injection, schedule: Q01DX005 (ip), vehicle: saline",106 % of control
same,T/C,"dose: 7.5 mg/kg/injection, schedule: Q01DX009 (ip), vehicle: saline + alcohol",98 % of control
same,T/C,"dose: 12.0 mg/kg/injection, schedule: Q01DX005 (ip), vehicle: saline",99 % of control
same,T/C,"dose: 15.0 mg/kg/injection, schedule: Q01DX009 (ip), vehicle: saline + alcohol",102 % of control
same,T/C,"dose: 24.0 mg/kg/injection, schedule: Q01DX005 (ip), vehicle: saline",106 % of control
same,T/C,"dose: 30.0 mg/kg/injection, schedule: Q01DX009 (ip), vehicle: saline + alcohol",104 % of control
O=C(O)c1[nH]c(=O)[nH]c(=O)c1[N+](=O)[O-],T/C,[5],93 % of control
same,T/C,[6],98 % of control
same,T/C,"dose: 200.0 mg/kg/injection, schedule: Q01DX005 (ip), vehicle: Klucel (hydroxypropylcellulose) (HPC)",98 % of control
Nc1cccc[n+]1CCCCCC[n+]1ccccc1N,T/C,"dose: 3.13 mg/kg/injection, schedule: Q01DX009 (ip), vehicle: saline",102 % of control
same,T/C,"dose: 6.25 mg/kg/injection, schedule: Q01DX009 (ip), vehicle: saline",103 % of control
NNC(=O)C(=O)Nc1nccs1,T/C,[13],94 % of control
same,T/C,[14],95 % of control
C[Si](C)(C)O[C@@H]1CCCC1N (stereo not given in full),T/C,[13],106 % of control
same,T/C,[14],97 % of control
same,T/C,"dose: 240.0 mg/kg/injection, schedule: Q01DX005 (ip), vehicle: saline with Tween-80",105 % of control
NC(=O)CN1CCN(c2ccnc3cc(Cl)ccc23)CC1,T/C,[4],101 % of control
same,T/C,[11],99 % of control
same,T/C,[12],99 % of control and 103 % of control
CCCCCN(CCCCC)C(C)C(O)c1ccc2cc(Cl)c3ccccc3c2c1 (stereo not given),T/C,"dose: 50.0 mg/kg/injection, schedule: Q01DX005 (ip), vehicle: saline with Tween-80",99 % of control
same,T/C,"dose: 100.0 mg/kg/injection, schedule: Q01DX005 (ip), vehicle: saline with Tween-80",101 % of control
O=C(O)CCSSCCCCCS(=O)O,T/C,"dose: 50.0 mg/kg/injection, schedule: Q01DX005 (ip), vehicle: saline",100 % of control
same,T/C,"dose: 100.0 mg/kg/injection, schedule: Q01DX005 (ip), vehicle: saline",104 % of control
same,T/C,"dose: 200.0 mg/kg/injection, schedule: Q01DX005 (ip), vehicle: saline",104 % of control
